The results in this text go back to article PMC7582544, “Bioactive Ent-Kaurane Diterpenes Oridonin and Irudonin Prevent Cancer Cells Migration by Interacting with the Actin Cytoskeleton Controller Ezrin” (International Journal of Molecular Sciences, 2020).

Each structure is given as a SMILES string. Where two headings read alike, the source gives them in different places.

Test [1] deals with T1, Ezrin (Homo sapiens, UniProt P15311).
T1 construct: gene EZR
The experiment in a line: CETSA dose response at […] °C in MKN28 cells (EC50 […] in A375), Tm shift […] to […] °C; DARTS with MS and Western blot. Type of test: cell-based.

The subject of another test is MKN28. The experiment in a line: cells. To be noted: Homo sapiens, MKN-28, 24 h. More on the design: species or system C2C12, A375; PrestoBlue cell proliferation/viability assay, absorbance 570 nm, 24 h.
In another test the test system is A375. The experiment in a line: cells. Details: species or system C2C12, MKN28; PrestoBlue cell proliferation/viability assay, absorbance 570 nm, 24 h. To be noted: Homo sapiens, A-375, 24 h.
The subject of a further test is C2C12. Nature of the test: cells. To be noted: Mus musculus, 24 h, non-cancer myoblasts. Details: species or system MKN28, A375; PrestoBlue cell proliferation/viability assay, absorbance 570 nm, 24 h. As for the experimental part: Cell proliferation rate was evaluated measuring mitochondrial metabolic activity through the use of PrestoBlueTM (PB) (Cat. N. A13262, Invitrogen), employed according to the manufacturer’s protocol. Cells were plated onto 96-well plates (8000 cells/well), treated with increasing concentrations (10–60 μM) of Ori or Iru for 24 h and then incubated with PB reagent at 10% final concentration for 1 h. The absorbance was monitored at 570 nm with a reference wavelength set a 600 nm and using a microplate reader (Multiskan Go, Thermo Scientific, Waltham, MA, USA). Cell viability was expressed as a percentage relative to the un-treated cells cultured in DMEM with 0.1% DMSO and set to 100%. The dose compounds reducing cell number by 50% (IC50 values) were calculated using the respective dose–response curves according to the manufacturer’s protocol. IC50 values were used for the subsequent proteomic experiments. Instead, the non-toxic concentration of 10 μM was used for the functional assays. […] To that aim, we first evaluated the cytotoxic potential of both diterpenes on the C2C12 cells; therefore, we exposed for 24 h C2C12 myoblasts to increasing concentrations (10–60 μM) of Ori or of Iru, and, subsequently, we performed cell proliferation assay (Figure 1).

The target of test [2] is T1, Ezrin. Nature of the test: CETSA dose response at […] °C in A375 cells (EC50 […] in MKN28), Tm shift […] to […] °C; DARTS with MS and Western blot. Type of test: cell-based. In general terms: In western blotting, separated proteins are transferred to a membrane and probed.

T1 sequence (P15311 whole entry): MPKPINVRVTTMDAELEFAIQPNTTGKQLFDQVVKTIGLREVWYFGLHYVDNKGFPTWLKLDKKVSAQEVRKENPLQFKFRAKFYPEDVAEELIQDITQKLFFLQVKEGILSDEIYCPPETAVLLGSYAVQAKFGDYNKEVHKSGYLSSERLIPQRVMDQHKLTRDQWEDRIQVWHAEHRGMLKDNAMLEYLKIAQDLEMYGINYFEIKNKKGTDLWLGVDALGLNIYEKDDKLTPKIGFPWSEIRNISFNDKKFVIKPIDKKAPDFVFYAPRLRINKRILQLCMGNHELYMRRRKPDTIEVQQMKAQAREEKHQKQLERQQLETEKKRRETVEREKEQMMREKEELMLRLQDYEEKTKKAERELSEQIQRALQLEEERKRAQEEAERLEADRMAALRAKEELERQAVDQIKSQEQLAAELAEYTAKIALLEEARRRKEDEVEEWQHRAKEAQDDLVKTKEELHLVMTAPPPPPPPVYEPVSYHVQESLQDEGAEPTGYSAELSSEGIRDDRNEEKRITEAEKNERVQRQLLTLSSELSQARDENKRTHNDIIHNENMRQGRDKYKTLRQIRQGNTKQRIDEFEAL

On to `C=C1C(=O)[C@@]23C(CC[C@@H]1[C@H]2O)[C@]12CCCC(C)(C)C1[C@H](O)[C@@]3(O)O[C@H]2O` (some centres unmarked) [Iru], for which, at Ezrin [1], the 50% effective concentration (EC50) – broadly, the concentration at which the effect is half-maximal – was found to be 13 µM. Moreover, the IC50 (as a rule, the point on the concentration scale where inhibition reaches its midpoint) with MKN28 (read-out: Iru IC50) came out at 25 µM; in the test on A375 (read-out: Iru IC50), 35 µM; with C2C12 (read-out: Iru IC50), 50 µM.
For the compound `C=C1C(=O)[C@]23[C@H](O)[C@H]1CC[C@H]2[C@@]12CO[C@]3(O)[C@@H](O)[C@@H]1C(C)(C)CC[C@@H]2O` [Ori, (1S,2S,5S,8R,9S,10S,11R,15S,18R)-9,10,15,18-tetrahydroxy-12,12-dimethyl-6-methylidene-17-oxapentacyclo (7.6.2.15,8.01,11.02,8) octadecan-7-one], on Ezrin [2], the EC50 is 19 µM. The IC50 in the test with MKN28 (read-out: Ori IC50) worked out at 20 µM; in the test on A375 (read-out: Ori IC50), 25 µM; in the test on C2C12 (read-out: Ori IC50), 30 µM.
